From US20090054435A1, “Phenoxyalkanoic Acid Compound” (priority 2005, published 2009)

melting point [°C]	SMILES
81 to 82	COc1ccc(C(=O)c2ccc(OCCc3nc(-c4ccccc4)oc3C)cc2)c(OC(C)(C)C(=O)O)c1 [Example 38, 2-(5-methoxy-2-{4-[2-(5-methyl-2-phenyl-1,3-oxazol-4-yl)ethoxy]benzoyl}phenoxy)-2-methylpropanoic acid]
165 to 167	COc1ccc(C(=O)c2ccc(OCc3coc(-c4ccccc4)n3)cc2)c(OC(C)(C)C(=O)O)c1 [Example 32, 2-(5-methoxy-2-{4-[(2-phenyl-1,3-oxazol-4-yl)methoxy]benzoyl}phenoxy)-2-methylpropanoic acid]
164.5 to 165.5	COc1ccc(C(=O)c2ccc(OCc3nc(-c4ccccc4)oc3C)nc2)c(O[C@H](C)C(=O)O)c1 [Example 54, (2R)-2-[5-methoxy-2-({6-[(5-methyl-2-phenyl-1,3-oxazol-4-yl)methoxy]pyridin-3-yl}carbonyl)phenoxy]propanoic acid]
182 to 183	COc1ccc(C(=O)c2ccc(OCc3nc(-c4cccc(OS(C)(=O)=O)c4)oc3C)cc2)c(OC(C)(C)C(=O)O)c1 [Example 37, 2-{5-methoxy-2-[4-({5-methyl-2-[3-(methanesulfonyloxy)phenyl]-1,3-oxazol-4-yl}methoxy)benzoyl]phenoxy}-2-methylpropanoic acid]
167.5 to 168.5	COc1ccc(C(=O)c2ccc(Oc3ccccc3)nc2)c(OC(C)(C)C(=O)O)c1 [Example 51, 2-{5-methoxy-2-[(6-phenoxypyridin-3-yl)carbonyl]phenoxy}-2-methylpropanoic acid]
169 to 170	COc1ccc(C(=O)c2ccc(OCc3nc(-c4ccccc4)oc3C)cc2)c(O[C@@H](C)C(=O)O)c1 [Example 57, (2S)-2-(5-methoxy-2-{4-[(5-methyl-2-phenyl-1,3-oxazol-4-yl)methoxy]benzoyl}phenoxy)propanoic acid]
119 to 120	COc1ccc(O[C@H](C)C(=O)O)c(C(=O)c2ccc(OCc3nc(-c4ccccc4)oc3C)cc2)c1 [Example 39, (2R)-2-(4-methoxy-2-{4-[(5-methyl-2-phenyl-1,3-oxazol-4-yl)methoxy]benzoyl}phenoxy)propanoic acid]
58 to 60	COc1ccc(C(=O)c2ccc(OCc3ccccc3)nc2)c(OC(C)(C)C(=O)OC(C)(C)C)c1 [Example 45, tert-butyl 2-(2-{[6-(benzyloxy)pyridin-3-yl]carbonyl}-5-methoxyphenoxy)-2-methylpropanoate]

The next lines start with the compound.

SMILES	melting point [°C]
CCOC(c1cccc(OCc2nc(-c3ccccc3)oc2C)c1)c1ccc(OC)cc1OCC(=O)O (stereo not drawn) [Example 7, [2-(ethoxy{3-[(5-methyl-2-phenyl-1,3-oxazol-4-yl)methoxy]phenyl}methyl)-5-methoxyphenoxy]acetic acid]	129 to 130
COc1ccc(C(C)(O)c2cccc(OCc3nc(-c4ccccc4)oc3C)c2)c(OCCOC(C)=O)c1 (stereo not drawn) [Example 5, [2-(1-hydroxy-1-{3-[(5-methyl-2-phenyl-1,3-oxazol-4-yl)methoxy]phenyl}ethyl)-5-methoxyphenoxy]ethyl acetate]	144 to 145
CCCC(Oc1cc(OC)ccc1C(=O)c1ccc(OCc2nc(-c3ccccc3)oc2C)cc1)C(=O)O (stereo not drawn) [Example 20, 2-(5-methoxy-2-{4-[(5-methyl-2-phenyl-1,3-oxazol-4-yl)methoxy]benzoyl}phenoxy)pentanoic acid]	139 to 140
Cc1oc(-c2ccccc2)nc1COc1ccc(C(=O)c2ccc(O)cc2OCC(=O)O)cc1 [Example 11, (5-hydroxy-2-{4-[(5-methyl-2-phenyl-1,3-oxazol-4-yl)methoxy]benzoyl}phenoxy)acetic acid]	229 to 230
COc1ccc(C(=O)c2cccc(OCc3nc(-c4ccccc4)oc3C)c2)c(OCCOC(C)=O)c1 [Example 2, (5-methoxy-2-{3-[(5-methyl-2-phenyl-1,3-oxazol-4-yl)methoxy]benzoyl}phenoxy)ethyl acetate]	90 to 91
COc1ccc(C(=O)c2ccc(OCc3nc(-c4ccccc4)sc3C)cc2)c(OC(C)(C)C(=O)O)c1 [Example 29, 2-(5-methoxy-2-{4-[(5-methyl-2-phenyl-1,3-thiazol-4-yl)methoxy]benzoyl}phenoxy)-2-methylpropanoic acid]	145 to 147
COc1ccc(C(=O)c2ccc(OCc3nc(-c4ccccc4)oc3C)cc2)c(OCCC(=O)O)c1 [Example 15, 3-(5-methoxy-2-{4-[(5-methyl-2-phenyl-1,3-oxazol-4-yl)methoxy]benzoyl}phenoxy)propanoic acid]	142 to 143
Cc1oc(-c2ccccc2)nc1COc1ccc(C(=O)c2ccccc2OCC(=O)O)cc1 [Example 8, (2-{4-[(5-methyl-2-phenyl-1,3-oxazol-4-yl)methoxy]benzoyl}phenoxy)acetic acid]	174 to 175
CCOC(=O)COc1cc(O)ccc1C(=O)c1ccc(OCc2nc(-c3ccccc3)oc2C)cc1 [Example 12, ethyl (5-hydroxy-2-{4-[(5-methyl-2-phenyl-1,3-oxazol-4-yl)methoxy]benzoyl}phenoxy)acetate]	184 to 186
CCC(Oc1cc(OC)ccc1C(=O)c1ccc(OCc2nc(-c3ccccc3)oc2C)cc1)C(=O)O (stereo not drawn) [Example 17, 2-(5-methoxy-2-{4-[(5-methyl-2-phenyl-1,3-oxazol-4-yl)methoxy]benzoyl}phenoxy)butanoic acid]	161 to 162
COc1ccc(C(=O)c2ccc(OCc3nc(-c4ccccc4)oc3C)cc2)c(OC2(C(=O)O)CCC2)c1 [Example 23, 1-(5-methoxy-2-{4-[(5-methyl-2-phenyl-1,3-oxazol-4-yl)methoxy]benzoyl}phenoxy)cyclobutanecarboxylic acid]	199 to 201
COc1ccc(C(=O)c2ccc(OCc3nc(-c4ccccc4)oc3C)cc2)c(OC(C)C(=O)O)c1 (stereo not drawn) [Example 13, 2-(5-methoxy-2-{4-[(5-methyl-2-phenyl-1,3-oxazol-4-yl)methoxy]benzoyl}phenoxy)propanoic acid]	100 to 102
COc1ccc(C(=O)c2ccc(OCc3nc(-c4ccccc4)oc3C)cc2)c(OC(F)(F)C(=O)O)c1 [Example 19, difluoro (5-methoxy-2-{4-[(5-methyl-2-phenyl-1,3-oxazol-4-yl)methoxy]benzoyl}phenoxy)acetic acid]	166 to 167
COc1ccc(C(=O)c2cccc(OCc3nc(-c4ccccc4)oc3C)c2)c(OCC(=O)O)c1 [Example 4, (5-methoxy-2-{3-[(5-methyl-2-phenyl-1,3-oxazol-4-yl)methoxy]benzoyl}phenoxy)acetic acid]	198 to 199
COc1ccc(C(C)(O)c2cccc(OCc3nc(-c4ccccc4)oc3C)c2)c(OCC(=O)O)c1 (stereo not drawn) [Example 6, [2-(1-hydroxy-1-{3-[(5-methyl-2-phenyl-1,3-oxazol-4-yl)methoxy]phenyl}ethyl)-5-methoxyphenoxy]acetic acid]	148 to 149
COc1ccc(C(=O)c2ccc(OCc3nc(-c4ccccc4)oc3C)cc2)c(OC(C(=O)O)C(C)C)c1 (stereo not drawn) [Example 18, 2-(5-methoxy-2-{4-[(5-methyl-2-phenyl-1,3-oxazol-4-yl)methoxy]benzoyl}phenoxy)-3-methylbutanoic acid]	87 to 88
